According to PMC10599993, “The PTPN2/PTPN1 inhibitor ABBV-CLS-484 unleashes potent anti-tumour immunity” (Nature, 2023):

Assays:
[1] = target: T1, PTPN2 (Homo sapiens, UniProt P17706); experiment: mobility shift enzyme assay with labelled insulin receptor phosphopeptide; type: biochemical
T1 construct: full-length recombinant

[2] = target: T2, PTPN1 (Homo sapiens, UniProt P18031); experiment: as above; type: biochemical
T2 construct: full-length recombinant
T2 sequence (P18031 whole entry): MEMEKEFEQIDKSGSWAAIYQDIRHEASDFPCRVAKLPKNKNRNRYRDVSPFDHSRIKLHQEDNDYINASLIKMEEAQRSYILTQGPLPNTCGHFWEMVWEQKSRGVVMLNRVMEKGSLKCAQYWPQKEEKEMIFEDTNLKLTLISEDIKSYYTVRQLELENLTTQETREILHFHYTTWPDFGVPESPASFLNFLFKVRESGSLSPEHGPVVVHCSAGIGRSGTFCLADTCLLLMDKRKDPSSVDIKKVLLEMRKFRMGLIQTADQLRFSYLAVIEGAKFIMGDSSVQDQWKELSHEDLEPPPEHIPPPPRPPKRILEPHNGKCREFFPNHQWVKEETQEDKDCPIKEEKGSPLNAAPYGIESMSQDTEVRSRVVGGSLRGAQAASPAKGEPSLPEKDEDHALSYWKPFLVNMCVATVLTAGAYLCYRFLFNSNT

T1 sequence (P17706 whole entry): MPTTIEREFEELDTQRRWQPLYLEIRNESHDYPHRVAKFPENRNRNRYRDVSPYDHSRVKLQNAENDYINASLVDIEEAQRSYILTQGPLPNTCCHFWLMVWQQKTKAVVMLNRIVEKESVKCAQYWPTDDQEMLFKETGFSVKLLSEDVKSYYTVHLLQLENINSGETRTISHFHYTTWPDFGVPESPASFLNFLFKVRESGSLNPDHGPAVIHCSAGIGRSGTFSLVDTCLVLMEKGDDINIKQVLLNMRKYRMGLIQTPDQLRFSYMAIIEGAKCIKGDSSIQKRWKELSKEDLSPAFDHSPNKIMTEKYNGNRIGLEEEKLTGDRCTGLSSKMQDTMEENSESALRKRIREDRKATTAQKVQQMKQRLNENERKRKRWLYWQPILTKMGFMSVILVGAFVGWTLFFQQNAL

An IC50 [1] of 3.9 nM and an IC50 [2] of 2.8 nM were found for `O=C1CN(c2c(O)cc3ccc(NCC4CC4)cc3c2F)S(=O)(=O)N1` [A-650] in this work.
